Laboratory results as given in a melting point compilation (Tetko et al.; mined from patent text by program, amines drawn as free bases though some values may be those of a salt).

Row | SMILES | melting point [°C]
1 | COc1ccc2c(c1)CCC1C2CCC2(C)C(O)C(C)CC12 (stereo not drawn) | 100 to 102
2 | C=C1/C(=C\C=C2/CCC[C@@]3(C)[C@H]2CC[C@@H]3[C@]2(C)C[C@H](CC(C)(C)O)CO2)C[C@@H](O)C[C@@H]1O | 128
3 | CCC(C)OC(=O)CNC(=O)[C@@H](Cc1ccccc1)CN1CC[C@@](C)(c2cccc(O)c2)[C@@H](C)C1 (stereo partly drawn) | 94
4 | O=[N+]([O-])c1cnccc1Oc1ccc2[nH]ccc2c1 | 182 to 184
5 | COc1cc(C#N)cc(Br)c1O | 144 to 145
6 | CCCCCCCCCCCN(O)C(=O)N(C)C | 54 to 55
7 | O=C(NC(Oc1ccc(Cl)cc1)C(Cl)(Cl)Cl)c1ccccc1O (stereo not drawn) | 116 to 117
8 | CCOC(=O)c1cc(F)c2c(c1Cl)C(OCCF)CCS2(=O)=O (stereo not drawn) | 87 to 89
9 | CC(=O)NCC1CC(c2ccc(Br)cc2)=NO1 (stereo not drawn) | 198 to 199
10 | CCCCn1c(=O)c(NC(=O)Nc2c(C(C)C)cc(CN)cc2C(C)C)c(-c2cccc(OC)c2)c2cccnc21 | 186 to 187
11 | CC(C)(C)OC(=O)Nc1ccsc1NC(=O)OC(C)(C)C | 165 to 167
12 | CC(=NO)c1ccncc1 | 154 to 155
13 | Cc1cc(NC(=O)C(C)(O)COc2cccc(Cl)c2)ccc1[N+](=O)[O-] (stereo not drawn) | 104 to 107
14 | OC(Cc1ccc(Cl)cc1)(Cn1ccnc1)c1ccc2c(c1)Cc1cc(Cl)ccc1-2 (stereo not drawn) | 218
15 | COC(=O)c1nc(CCl)n(-c2ccc(Cl)cc2C(=O)c2ccccc2)n1 | 132 to 134
16 | C[C@H]1N(C(=O)c2ccc(C(F)(F)F)cc2)CC(F)O[C@@]1(Cn1cncn1)c1ccc(Cl)cc1Cl (relative stereo) | 151 to 156
17 | N#Cc1nc(C=Cc2cnn(-c3c(Cl)cc(C(F)(F)F)cc3Cl)n2)[nH]c1C#N | 111 to 112
18 | CC(=O)OC1CC2CCC3C4CCC(C(C)=O)C4(C)CC(=O)C3C2(C)CC1Br (stereo not drawn) | 154 to 156
19 | O=C(c1ccc(-c2ccc3nnn(Cc4ccc5ncccc5c4)c3n2)cc1)N1CCC(N2CCCC2)CC1 | 125 to 127
20 | C#Cc1cc(C)c(Oc2ccc([N+](=O)[O-])c(Nc3ccc(C#N)cc3)n2)c(C)c1 | 186 to 188
21 | CCCC(=O)c1cc2c(=O)cc(C(=O)OC)[nH]c2c(C)c1C | 157 to 159

Row | SMILES | melting point [°C]
22 | CC#CCCn1ncc2c(OCC)c(C(=O)OCC)c(C)nc21 | 94 to 95
23 | N#Cc1ccc2nc3c(c(=O)n2c1)CSC3 | 256 to 257
24 | COC12CC(C3(c4cncc(Br)c4)N=NCS3)CN(C)C1Cc1cn(C)c3cccc2c13 (stereo not drawn) | 131 to 137
25 | CCCc1c2c(c(O)c3c(=O)cc(C(=O)OCC)oc13)CCCC2 | 136 to 138
26 | O=c1[nH]c(N2CCOCC2)nc2c(N3CCCCCC3)nc(N3CCOCC3)cc12 | 240
27 | OC(CCN1CC=C(c2ccccc2)CC1)c1ccc(Cl)cc1Cl (stereo not drawn) | 103 to 104
28 | COc1cc2c(cc1Nc1ncc(Cl)c(Nc3ccc(N4CCOCC4)cc3OC)n1)CCN(C(=O)CN(C)C)CC2 | 84 to 101
29 | COc1ccc2oc(C(=O)CBr)cc2c1 | 86 to 87
30 | Cc1c(C)c2c(c(C)c1N)CC(C)(CN1CCC(NC(c3ccc(F)cc3)c3ccc(F)cc3)CC1)O2 (stereo not drawn) | 133 to 134
31 | Cc1cn(-c2nc(C)cc3[nH]c(=O)ccc23)cn1 | 307 to 308
32 | CCC(=O)N1CCC(NC(=O)Nc2cccc(F)c2)CC1 | 158 to 164
33 | O=C(c1ccc(F)cc1O)C1CC1 | 58
34 | O=C(NN1CCOCC1)OCCCCCCOC(=O)NN1CCOCC1 | 197 to 199
35 | COc1ccc(Sc2ccnc(Nc3ccc(OCCN(C)C)cc3)n2)cc1 | 112 to 113
36 | CCCCc1nc2c(N)nc3ccccc3c2n1CCN1C(=N)NC2CSC(CCCCC(N)=O)C21 (stereo not drawn) | 95 to 96
37 | O=Cc1ccc(OCC(F)(F)F)c([N+](=O)[O-])c1 | 126 to 127
38 | Cc1cc(C)c2c(c1O)C(NCc1cc(C(C)(C)C)c(O)c(C(C)(C)C)c1)CC2 (stereo not drawn) | 154 to 155
39 | COc1cc(C2=NC(C)(C)CO2)cc(OC)c1SC | 82.5 to 84.5
40 | CNC(=O)ON=C1SC(C)(C)N=C1C | 90 to 92
41 | CCC1CCCCN1CCC(=O)Nc1ccc2c(=O)c3ccc(NC(=O)CCN4CCCCC4CC)cc3[nH]c2c1 (stereo not drawn) | > 320
42 | CCCC1=C([N+](=O)[O-])C(c2ccccc2Br)c2c[nH]nc2N1 (stereo not drawn) | 226

Second part, the compound after the results:

Row | melting point [°C] | SMILES
43 | 301 to 307 | O=C(O)c1ccc(-c2nnc(-c3ccc(OC(F)(F)C(F)(F)F)cc3)o2)cc1
44 | 116 to 118 | COc1ccc(-c2cc(Cl)c3cc(O)ccc3c2)cc1
45 | 122 to 124 | COC(=O)c1ccc(-c2ccc(Cl)s2)nc1
46 | 130 to 132 | COC(=O)C(C)(C(=O)OC)C(C[N+](=O)[O-])c1ccccc1 (stereo not drawn)
47 | 201 to 202 | CCOC(=O)C(C)(C)n1c(=O)[nH]c2cc(Cl)ccc2c1=O
48 | 168 | O=C(O)CN1C(=O)C(=Cc2ccc(OCCc3ccccc3)c(OC(c3ccccc3)C(F)(F)F)c2)SC1=S (stereo not drawn)
49 | 168 to 170 | O=C(O)CC1(C(=O)O)CCSc2ccccc21 (stereo not drawn)
50 | 248 to 250 | CC(C)Cn1c(CNC(=O)OC(C)(C)C)c(-c2cccs2)c2cc(C(N)=O)ccc2c1=O
51 | 135 to 146 | O=C1Cc2cccc(Oc3ccccc3)c2N1
52 | 141 to 142 | CS(=O)(=O)c1ccc(-c2cc(C(F)(F)F)cnc2C(=O)c2ccccc2)cc1
53 | 184 to 186 | COC(=O)c1nc2cccc(OC)c2c(O)c1C(=O)OC
54 | 52 to 54 | CCCCCN(CCCCC)C(=O)C(CCC(=O)OC)CS(=O)(=O)c1ccc(Cl)c(Cl)c1 (stereo not drawn)
55 | 169 to 172 | Cc1cccc(-c2n[nH]cc2-c2ccc(F)c(-c3ccc(C(C)(C)O)cn3)c2)n1
56 | 98 to 100 | CCOC(=O)Cc1ccc2c(c1)C(=O)c1ccccc1CN2
57 | 141 to 143 | O=C(c1ccc(F)cc1)C1CCN(CCn2c(=O)[nH]c3ccsc3c2=O)CC1
58 | 189 to 190 | COc1ccc(C2Cc3c(cccc3C(F)(F)F)NC(=O)C2CO)cc1 (stereo not drawn)
59 | 272 to 273 | COc1ccccc1N1CCN(c2nc3c(cc2F)c(=O)c(C(=O)O)cn3-c2ccc(F)cc2)CC1
60 | 91 to 92 | COc1ccc(C2=NN(Cc3ccccc3)C(=O)[C@H]3CCCC[C@@H]23)cc1OC1CCCC1 (relative stereo)
61 | 164 to 165 | O=C(OCc1ccccc1)c1ccc(OC(=O)c2ccc(O)c(C34CC5CC(CC(C5)C3)C4)c2)cc1

Row | melting point [°C] | SMILES
62 | 227 to 230 | CCN1C(=O)C(C)(C)c2ccc(C(=O)Nc3ccccc3)cc21
63 | 197 to 200 | CC(=O)Oc1c(N2CCCC2)c(=O)n(-c2ccccc2)c2ncccc12
64 | 241 to 242 | O=C(Cn1c(=O)c(=O)[nH]c2cc(C(F)(F)F)c(-n3cccc3)cc21)NCc1ccccc1
65 | 157 to 167 | CC(Oc1ccccc1)c1nnc(N)s1 (stereo not drawn)
66 | 126 to 127 | CC(C)(C)OC(=O)c1ccc(C=Cc2ccc(C(=O)OC(C)(C)C)cc2)cc1
67 | 102 to 105 | COc1cc(N)c(Cl)cc1C(=O)NCC1CCN(CCCCSc2ccccc2)CC1
68 | 181 to 183 | Cc1oc(-c2ccccc2)nc1COc1ccc(CC(=O)O)cc1
69 | 191 | Nc1ccc(C2Nc3ccccc3C(=O)N2c2ccccc2)cc1 (stereo not drawn)
70 | 130 to 132 | CNc1cccc(N)c1C(N)=O
71 | 106 to 107 | Cc1ccnc2c1C(=O)CC(c1ccccc1Br)C2 (stereo not drawn)
72 | 145 to 146 | Nc1cc(=O)n(Cc2ccc(Br)c(Cl)c2)[nH]1
73 | 182 to 184 | O=C1NN=C(CCc2ccccc2)c2c[nH]c3cccc1c23
74 | 94 to 102 | CC(C(=O)O)c1ccc(N2CCC=N2)c(Cl)c1 (stereo not drawn)
75 | 142 to 144 | O=C(NCc1ccccc1Cl)C1Cc2ccccc2N1S(=O)(=O)c1ccc(-c2cccc(C(F)(F)F)c2)cc1 (stereo not drawn)
76 | 140 to 141 | Cn1ncc2c1-c1c(Nc3ccccc3)sc(C(N)=O)c1CC2
77 | 172 to 175 | O=C(O)c1ccc(NCCOc2ccccc2)cc1
78 | 136 to 138 | Oc1ccc2cc(I)ccc2c1
79 | 123 to 124 | CC(=O)OC1OC(COC(=O)c2ccccc2)CC(OC(=O)c2ccccc2)C1OC(=O)c1ccccc1 (stereo not drawn)
80 | 120 to 122 | CSc1ccc(/C=C2/C(CCN(O)C(N)=O)=C(C)c3ccccc32)cc1

Row | melting point [°C] | SMILES
81 | 150 to 152 | Cc1ccc(-c2ccc([C@H](C)N3CC[C@](CC(C)(C)O)(c4ccccc4)OC3=O)cc2)nn1
82 | 130 to 133 | COc1ccc(-c2nc(-c3cccn3CC(=O)OC(C)C)sc2-c2ccc(OC)cc2)cc1
83 | 150 to 152 | ONCc1ccc2c(c1)Cc1ccccc1-2
84 | 227 | O=C(NCC1CN(c2ccc(N3CCOCC3=O)cc2)C(=O)O1)c1ccc(Cl)s1 (stereo not drawn)
85 | 89.5 to 90.5 | COC(=O)c1ccc(OCC2CC(=O)N(c3ccc(OCC(C)(C)O)cc3)C2)cc1 (stereo not drawn)
86 | 110 to 115 | CCCCCC/C(=C\c1ccccc1)CNc1cccc(-c2ccnc3c(C(=O)c4cccs4)cnn23)c1
87 | 131 to 133 | CCOC(=O)/C=C/c1ccc(O)cc1OCc1ccccc1
88 | 108 | Cc1cccc(NC(=O)NCC(=O)N(c2ccccc2)C(C(=O)OC(C)(C)C)c2ccc(N)cc2)c1 (racemic)
89 | 121 to 122 | COC(=C(C#N)C(=O)Nc1ccccc1)c1cccn1C
90 | 154 to 156 | CCCCCCOc1ccc(C(=O)Nc2ccccc2Sc2ccccc2-c2nnn[nH]2)cc1
91 | 168 to 170 | COc1ccc(C(=O)Nc2ccc3ccc(Oc4ccccc4OC)nc3n2)cc1
92 | 149 to 152 | O=C(c1cccs1)c1cnn2c(-c3cccc(NCc4ccc(Cl)cc4)c3)ccnc12
93 | 118 to 120 | Cc1cc(N2CCN(Cc3ccc(N)cc3)C2=O)sc1C(=O)NCc1cccnc1
94 | 150 to 152 | CCn1ncnc1COc1nc2c(cnn2-c2ccccc2)cc1C(C)(C)C
95 | 164 to 165 | CN(C)c1cccc2c(S(=O)(=O)Nc3ccc(Br)nc3)cccc12
96 | 101 to 103 | O=C(c1ccc(Cl)cc1)c1nccs1
97 | 180 to 181 | CC(C(=O)O)c1cccc(S(=O)(=O)c2ccccc2Cl)c1O (stereo not drawn)
98 | 115 to 117 | C#CCN(Cc1cc2c(=O)n(C)c(CN3CCN(CCO)CC3)nc2cc1Cl)c1ccc(C(=O)NCc2cccnc2)cc1
